Test results from publication PMC5874726, “Comparison Study of Two Differently Clicked ^18F-Folates—Lipophilicity Plays a Key Role” (Pharmaceuticals, 2018).

How the values were obtained:
[1] = Stability in human serum albumin at 37 °C; settings: 2 h
Procedure: The in vitro stability was assessed in human serum albumin at 37 °C.
For testing the stability, 200 µL of ^18F-DBCO-folate or ^18F-Ala-folate (ca. 4 MBq) were incubated at 37 °C in 500 µL human serum albumin. After predetermined time points plasma proteins were precipitated with 600 µL ice-cold acetonitrile followed by centrifugation (10,000 rpm, 10 min). An aliquot of the supernatant was injected into an analytical radio-HPLC.

FR-positive KB cells = experiment: Internalization studies in FR-positive KB cells; format: cell-based, human; settings: 5 nM, 37 °C, 1 h
Procedure: (§1) Two different temperatures (4 °C for receptor binding, 37 °C for receptor binding and internalization) and two different concentrations were assessed. […] Both radiofolates show a concentration as well as temperature depended increase of activity in the FR positive cells. […] This effect is not fully understood, but we presume the high lipophilicity in combination with the increased concentration being responsible for this high non-specific binding. […] Thus, about 90% of ^18F-DBCO-folate remained in solution, which is ideal for such a radiotracer assay set-up (see supporting information for pie chart of activity distribution, Figure S6). For ^18F-Ala-folate the overall receptor-bound and internalized fractions are similar to ^18F-DBCO-folate (see supporting information for pie chart of activity distribution, Figure S7).
As folate-receptor positive control, KB cells (derived from human cervical carcinoma; obtained from German Collection of Microorganisms and Cell Cultures), and OC316 cells (derived from human ovarian adenocarcinoma) as negative control were used. For FACS analysis, data of both cell lines see supporting information Figure S5. The cells were cultured in folate deficient RPMI 1640 medium containing 10% FCS, 1% penicillin-streptomycin and HEPES buffer (10 mM, 5 mL) grown at 37 °C in a humidified atmosphere containing 5% CO2. […] To determine the internalized fraction of both new ^18F-folate derivatives, different concentrations (1 and 5 nM) of the labeled agents were incubated with one million KB or OC316 cells at 4 °C and 37 °C. […] After 1h, the supernatant was removed, cells washed with PBS and with an acetate buffer (pH 3).

FR-negative OC316 cells = experiment: Internalization studies in FR-negative OC316 cells; format: cell-based, human; settings: blocked KB cells and FR-negative OC316 cells
Procedure: as §1
As folate-receptor positive control, KB cells (derived from human cervical carcinoma; obtained from German Collection of Microorganisms and Cell Cultures), and OC316 cells (derived from human ovarian adenocarcinoma) as negative control were used. For FACS analysis, data of both cell lines see supporting information Figure S5. The cells were cultured in folate deficient RPMI 1640 medium containing 10% FCS, 1% penicillin-streptomycin and HEPES buffer (10 mM, 5 mL) grown at 37 °C in a humidified atmosphere containing 5% CO2. […]

healthy balb/c mice = experiment: Ex vivo biodistribution in healthy balb/c mice; settings: healthy balb/c mice, 60 min p.i.
From the text: (§2) All animal experiments were approved by the local ethical committee (permission no. 23177-07/G15-1-033). Balb/c and balb/c nude (Balb/c AnNRj-Foxn1nu) mice were kept on a folate-deficient rodent diet to reduce their blood level of folate to one found in humans. After 7 days of acclimatization, human KB tumor cells (2.5 x 10^6 cells in PBS) were inoculated in the right shoulder of each balb/c nude mouse. All in vivo treatments and imaging experiments were done under isoflurane anesthesia. Eleven or twelve days after inoculation, animals were intravenously injected with ^18F-DBCO-Folate and ^18F-Ala-Folate (5–8 MBq, 100–200 µL) via a lateral tail vein. […] PET/MRI-studies were performed on a nanoScan PET/MRI (Mediso, Budapest, Hungary). First MRI scans (Material Map for co-registration of the PET scan; 3D; GRE-EXT, FOV; slice thickness: 0.6 mm; TE: 2 ms; TR: 15 ms; flip angle: 25 deg) were acquired and then either a dynamic scan over 60 min starting with injection of the radiotracer or a static scan for 10 min after 50 min p.i. were performed. All mice, which underwent ex vivo biodistribution, were scanned first. Afterwards co-registered PET/MR images were analyzed via PMOD (version 3.6) and Inveon Research Workplace (version 4.2). For ex vivo biodistribution studies mice were euthanized 60 min p.i. and organs of interest were dissected, weighed, and measured in a γ-counter (PerkinElmer 2470 Wizard2, Perkin Elmer, Rodgau, Germany). The incorporated radioactivity was expressed as percentage of injected dose per gram of tissue (% ID/g).

KB-tumor bearing mice = experiment: Ex vivo biodistribution in KB-tumor bearing mice; settings: 60 min p.i.; for uptake Appendix / uptake Blood / uptake Heart / uptake Inguinal lymph nodes / uptake Intestines (empty) / uptake Left kidney / uptake Liver / uptake Lung / uptake Muscle / uptake Pancreas / uptake Right kidney / uptake Spleen / uptake Stomach (empty) / uptake Tumor: KB xenograft mice
From the text: as §2

KB tumor-bearing mice = experiment: µPET imaging in KB tumor-bearing mice; format: in vivo, mouse
From the text: as §2

[2] = set-up: method as in doi:10.1039/C5MD00508F; settings: pH 7.4, shake-flask; cited from earlier work
[3] = blocked with 100 µg native folic acid
[4] = blockade with 100 µg native folic acid

SMILES: Nc1nc2ncc(CNc3ccc(C(=O)NC(CCC(=O)NCCOCCOCCOCCn4nnc5c4-c4ccccc4CN(C(=O)CCNC(=O)CCOCCOCCOCC[18F])c4ccccc4-5)C(=O)O)cc3)nc2c(=O)[nH]1 (stereo not drawn) [^18F-DBCO-folate]
- still intact after incubation [1]: > 90%
- fraction of tracer internalized (FR-positive KB cells): about 3%
- fraction of tracer receptor bound (FR-positive KB cells): about 7%
- fraction of tracer remained in solution (FR-positive KB cells): about 90%
- non-specific binding (FR-negative OC316 cells): distinct non-specific binding
- uptake Blood (healthy balb/c mice): 0.08 ± 0.01 %ID/g tissue
- uptake Heart (healthy balb/c mice): 0.09 ± 0.01 %ID/g tissue
- uptake Inguinal lymph nodes (healthy balb/c mice): 0.18 ± 0.08 %ID/g tissue
- uptake Intestines (empty) (healthy balb/c mice): 0.87 ± 0.57 %ID/g tissue
- uptake Left kidney (healthy balb/c mice): 3.90 ± 0.38 %ID/g tissue
- uptake Liver (healthy balb/c mice): 0.24 ± 0.02 %ID/g tissue
- uptake Lung (healthy balb/c mice): 0.35 ± 0.27 %ID/g tissue
- uptake Muscle (healthy balb/c mice): 0.06 ± 0.01 %ID/g tissue
- uptake Pancreas (healthy balb/c mice): 0.08 ± 0.01 %ID/g tissue
- uptake Right kidney (healthy balb/c mice): 3.99 ± 0.37 %ID/g tissue
- uptake Spleen (healthy balb/c mice): 0.07 ± 0.02 %ID/g tissue
- uptake Blood (healthy balb/c mice; [3]): 0.12 ± 0.05 %ID/g tissue
- uptake Heart (healthy balb/c mice; [3]): 0.11 ± 0.06 %ID/g tissue
- uptake Inguinal lymph nodes (healthy balb/c mice; [3]): 0.10 ± 0.08 %ID/g tissue
- uptake Intestines (empty) (healthy balb/c mice; [3]): 0.33 ± 0.22 %ID/g tissue
- uptake Left kidney (healthy balb/c mice; [3]): 0.40 ± 0.07 %ID/g tissue
- uptake Liver (healthy balb/c mice; [3]): 0.33 ± 0.08 %ID/g tissue
- uptake Lung (healthy balb/c mice; [3]): 0.36 ± 0.11 %ID/g tissue
- uptake Muscle (healthy balb/c mice; [3]): 0.07 ± 0.05 %ID/g tissue
- uptake Pancreas (healthy balb/c mice; [3]): 0.09 ± 0.05 %ID/g tissue
- uptake Right kidney (healthy balb/c mice; [3]): 0.38 ± 0.07 %ID/g tissue
- uptake Spleen (healthy balb/c mice; [3]): 0.11 ± 0.06 %ID/g tissue
- tumor/blood ratio (KB-tumor bearing mice): 5.61
- tumor/muscle ratio (KB-tumor bearing mice): 6.86
- uptake Appendix (KB-tumor bearing mice): 0.13 ± 0.02 %ID/g tissue
- uptake Blood (KB-tumor bearing mice): 0.09 ± 0.04 %ID/g tissue
- uptake Heart (KB-tumor bearing mice): 0.08 ± 0.02 %ID/g tissue
- uptake Inguinal lymph nodes (KB-tumor bearing mice): 0.48 ± 0.14 %ID/g tissue
- uptake Intestines (empty) (KB-tumor bearing mice): 0.42 ± 0.52 %ID/g tissue
- uptake Left kidney (KB-tumor bearing mice): 4.83 ± 0.90 %ID/g tissue
- uptake Liver (KB-tumor bearing mice): 0.18 ± 0.07 %ID/g tissue
- uptake Lung (KB-tumor bearing mice): 0.17 ±0.06 %ID/g tissue
- uptake Muscle (KB-tumor bearing mice): 0.07 ± 0.01 %ID/g tissue
- uptake Pancreas (KB-tumor bearing mice): 0.07 ±0.01 %ID/g tissue
- uptake Right kidney (KB-tumor bearing mice): 4.76 ± 0.89 %ID/g tissue
- uptake Spleen (KB-tumor bearing mice): 0.06 ± 0.02 %ID/g tissue
- uptake Stomach (empty) (KB-tumor bearing mice): 0.82 ± 0.64 %ID/g tissue
- uptake Tumor (KB-tumor bearing mice): 0.48 ± 0.14 %ID/g tissue
- uptake Appendix (KB-tumor bearing mice; [4]): 0.07 ± 0.01 %ID/g tissue
- uptake Blood (KB-tumor bearing mice; [4]): 0.06 ± 0.04 %ID/g tissue
- uptake Heart (KB-tumor bearing mice; [4]): 0.04 ± 0.02 %ID/g tissue
- uptake Inguinal lymph nodes (KB-tumor bearing mice; [4]): 0.04 ± 0.02 %ID/g tissue
- uptake Intestines (empty) (KB-tumor bearing mice; [4]): 0.56 ± 0.81 %ID/g tissue
- uptake Left kidney (KB-tumor bearing mice; [4]): 0.30 ± 0.04 %ID/g tissue
- uptake Liver (KB-tumor bearing mice; [4]): 0.14 ± 0.06 %ID/g tissue
- uptake Lung (KB-tumor bearing mice; [4]): 0.13 ± 0.05 %ID/g tissue
- uptake Muscle (KB-tumor bearing mice; [4]): 0.02 ± 0.01 %ID/g tissue
- uptake Pancreas (KB-tumor bearing mice; [4]): 0.03 ± 0.02 %ID/g tissue
- uptake Right kidney (KB-tumor bearing mice; [4]): 0.30 ± 0.02 %ID/g tissue
- uptake Spleen (KB-tumor bearing mice; [4]): 0.05 ± 0.03 %ID/g tissue
- uptake Stomach (empty) (KB-tumor bearing mice; [4]): 0.22 ± 0.09 %ID/g tissue
- uptake Tumor (KB-tumor bearing mice; [4]): 0.09 ± 0.04 %ID/g tissue
- tumor/liver ratio (KB-tumor bearing mice; liver including gallbladder): 2.58
- reduction of activity in the tumor in the blocked group (KB-tumor bearing mice; preinjection of excess native folic acid): 81%
- uptake in the bones (in vivo defluorination) (KB tumor-bearing mice; PET): Negligible uptake
- visualization of KB tumors in maximum intensity projection (MIP) PET images (KB tumor-bearing mice; static scan 50-60 min p.i.): impeded
- logD7.4 Value [2]: 0.6 ± 0.07 [18]

SMILES: O=C(CCOCCOCCOCC[18F])NCCC(=O)N1Cc2ccccc2C#Cc2ccccc21 [^18F-DBCO]
- logD7.4 Value [2]: 1.2 ± 0.07 [18]
